Measurements: PMC7010297, “How the initiating ribosome copes with ppGpp to translate mRNAs” (PLoS Biology, 2020)
Several values for one entry are separate records, joined by “and”; a condition that tells them apart may be missing. Equal values may be shown once.

Columns and labels:
70S IC = biological target: T1, 70S IC (Escherichia coli, UniProt P0A705); assay: 70S IC formation by Bpy-tRNAi accommodation, stopped-flow; assay type: biochemical; parameters: K1, best-fit value: unit not given here; settings: for A0, best-fit value / A1, best-fit value / K1, best-fit value / k2, best-fit value: fit Y=A0+A1*exp(-K1*x)+k2*x; for kfast (s-1) Avg: fluorescence
T1 construct: 6xHis (N); made in house
Protocol: (§1) Continuous lines indicate nonlinear regression fittings with a quadratic equation. Three measurements were performed; mean and standard deviation are plotted (S1 Data). (B) as (A) to measure the concentration dependence for each tested guanosine nucleotide at constant IF2 (1 μM). […] Continuous lines show best fits using exponential functions. (D) Formation of 70S IC as measured by Bpy-tRNAi accommodation in the P site of the ribosome; 0.1 μM 30S ICs were formed with Bpy-tRNAi and rapidly mixed with 0.3 μM 50S subunits on a stopped-flow apparatus as described in [14]. Colors are as in (C). Continuous lines show best fits using an exponential function for a single reaction step. Each stopped-flow trace results from the mean of 5 to 7 replicates.
(A) Scheme of 70S IC formation. […] Time traces were analyzed by nonlinear regression with exponential terms. […] Formation of 70S IC, as measured by Bpy-tRNAi accommodation in the absence (F) or presence of 200 μM ppGpp (G). Time traces were analyzed by nonlinear regression with one exponential term. […] Continuous lines show best fits using an exponential function for a single reaction step. All time traces are mean values of 5 to 10 replicates. Bar graphs show mean and standard errors (error bars) derived from the nonlinear regression fitting (D,E,H,I) (S1 Data).
To measure 70S pre-IC formation, a SX-20 stopped-flow instrument (Applied Photophysics, Leatherhead, UK) was set up for LS recording with an excitation wavelength of 430 nm. Scattered light was measured at an angle of 90° without a filter. Pseudo first-order conditions were approximated by using ≥3-fold excess of 50S subunits over 30S ICs; 0.2 μM 30S ICs were rapidly mixed in the instrument with 0.6 μM 50S at 25 °C. Bpy-tRNAi accommodation was measured essentially as described elsewhere. Briefly, 0.2 μM 30S ICs were formed using Bpy-tRNAi and rapidly mixed with 0.6 μM 50S at 25 °C. Fluorescence was excited at 470 nm and measured after a 495-nm longpass filter. Individual traces (6–11 traces) were averaged, and the resulting kinetic curve was approximated by single (F = A0 + A1*exp (-kapp1*t)) or double (F = A0 + A1*exp (-kapp1*t) + A2*exp (-kapp2*t)) exponential fit using Graphpad Prism 6.0 software (GraphPad, San Diego, California).

IF2 = biological target: T2, IF2 (Escherichia coli, UniProt P0A705); assay: IF2-Bpy-tRNAi-GNP ternary complex formation by MST; assay type: binding; settings: S2A Fig
T2 construct: 6xHis (N); made in house
Protocol: Supplementary file pbio.3000593.s002.pdf: S2 Fig IF2-Bpy-tRNAi complex formation as a function of guanosine nucleotides. (A) IF2 concentration dependencies for Bpy-tRNAi binding in the presence of 0.5 mM of the indicated guanosine nucleotides to build IF2-tRNA-GNP ternary complexes (TCs). […] Three to five measurements were performed; mean and standard deviation are plotted (S1 Data). […] (PDF) Click here for additional data file.

[1] = biological target: T3, 30S IC (30S-bound IF2, Bpy-tRNAi) (Escherichia coli, UniProt P0A705); assay: 30S IC formation measured by MST at increasing concentrations of IF2 with guanosine nucleotides; assay type: binding; settings: Fig 2A
T3 construct: 6xHis (N); made in house
Excerpt: To monitor the interaction of initiator tRNA and 30S ribosomal subunits, we used Microscale Thermophoresis (MST) with a fluorescently labelled initiator tRNA (Bpy-tRNAi) (Fig 1B). MST allows to measure fluorescence in a constrained space. Changes on the readout derive from molecular drifts resulting from small thermal equilibrium perturbations. Upon equilibrium perturbations, the patterns of Bpy-tRNAi migration away from the observation space are related to bound and unbound states (Fig 1B). […] On the contrary, a decrease in thermophoresis indicated the dissociation of Bpy-tRNAi. The relation between fluorescence measured at both equilibriums (Ff to Fi, after and prior to the perturbation, respectively) as a function of ligand concentration allowed to determine dissociation constants of the interaction (Fig 1C).
as §1

T2 sequence (P0A705 whole entry): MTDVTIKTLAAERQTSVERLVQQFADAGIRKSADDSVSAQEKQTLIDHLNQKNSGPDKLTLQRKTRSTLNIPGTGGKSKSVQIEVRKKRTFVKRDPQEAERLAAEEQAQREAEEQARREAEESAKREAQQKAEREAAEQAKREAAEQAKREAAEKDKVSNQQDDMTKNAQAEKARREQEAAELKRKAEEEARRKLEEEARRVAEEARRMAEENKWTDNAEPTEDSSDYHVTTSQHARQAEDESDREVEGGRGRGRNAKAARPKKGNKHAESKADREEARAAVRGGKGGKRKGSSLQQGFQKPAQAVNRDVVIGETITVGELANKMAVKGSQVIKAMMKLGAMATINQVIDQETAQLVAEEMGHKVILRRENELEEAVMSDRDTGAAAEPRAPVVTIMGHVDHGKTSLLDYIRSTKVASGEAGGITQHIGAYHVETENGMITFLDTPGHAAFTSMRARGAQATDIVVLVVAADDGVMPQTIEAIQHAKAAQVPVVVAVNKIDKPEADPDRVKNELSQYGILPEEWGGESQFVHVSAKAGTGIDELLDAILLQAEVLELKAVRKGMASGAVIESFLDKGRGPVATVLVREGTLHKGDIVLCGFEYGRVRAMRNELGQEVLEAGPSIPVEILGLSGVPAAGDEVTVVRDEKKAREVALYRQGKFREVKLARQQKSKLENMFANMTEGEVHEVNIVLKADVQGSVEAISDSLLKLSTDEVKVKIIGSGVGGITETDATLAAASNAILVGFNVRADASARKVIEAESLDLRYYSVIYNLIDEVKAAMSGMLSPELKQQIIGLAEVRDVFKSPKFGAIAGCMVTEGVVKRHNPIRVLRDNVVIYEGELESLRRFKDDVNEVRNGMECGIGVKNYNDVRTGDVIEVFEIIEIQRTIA
T1 sequence (P0A705 whole entry, looked up): as the sequence (P0A705 whole entry) above
T3 sequence (P0A705 whole entry, looked up): as the sequence (P0A705 whole entry) above

Nc1nc2c(ncn2[C@@H]2O[C@H](COP(=O)(O)OP(=O)(O)O)[C@@H](OP(=O)(O)OP(=O)(O)O)[C@H]2O)c(=O)[nH]1 [ppGpp]
efficiency (amplitude) of 70S IC formation (Bpy-tRNAi accommodation) (70S IC; 0.2 mM nucleotide, no GTP): reduced efficiencies
A0, best-fit value (70S IC; mInfA): 0.98
A1, best-fit value (70S IC; mInfA): 0.01
K1, best-fit value (70S IC; mInfA): 1.82
k2, best-fit value (70S IC; mInfA): -0.00033
A0, best-fit value (70S IC; mMF1): 0.97
A1, best-fit value (70S IC; mMF1): 0.0267
K1, best-fit value (70S IC; mMF1): 1.27
k2, best-fit value (70S IC; mMF1): -0.00023
Fluorescence Amplitude Avg (70S IC; mRNA mInfA): 0.010
kfast (s-1) Avg (70S IC; mRNA mInfA): 1.82 s⁻¹
Fluorescence Amplitude Avg (70S IC; mRNA mMF1): 0.027
kfast (s-1) Avg (70S IC; mRNA mMF1): 1.27 s⁻¹
Fluorescence Amplitude Avg (70S IC; mRNA mTufA): 0.043
kfast (s-1) Avg (70S IC; mRNA mTufA): 3.37 s⁻¹
A0, best-fit value (70S IC; mTufA): 0.96
A1, best-fit value (70S IC; mTufA): 0.0429
K1, best-fit value (70S IC; mTufA): 3.37
k2, best-fit value (70S IC; mTufA): -0.00059
MST Average (IF2; IF2 0.08 µM): 943.56 a.u.
MST Replicates (IF2; IF2 0.08 µM): 950.05 a.u. and 945.75 a.u. and 934.87 a.u.
MST Average (IF2; IF2 0.16 µM): 943.40 a.u.
MST Replicates (IF2; IF2 0.16 µM): 949.30 a.u. and 935.29 a.u. and 945.62 a.u.
MST Average (IF2; IF2 0.31 µM): 945.38 a.u.
MST Replicates (IF2; IF2 0.31 µM): 948.56 a.u. and 936.80 a.u. and 950.79 a.u.
MST Average (IF2; IF2 0.63 µM): 945.13 a.u.
MST Replicates (IF2; IF2 0.63 µM): 936.31 a.u. and 947.81 a.u. and 951.27 a.u.
MST Average (IF2; IF2 1.25 µM): 946.96 a.u.
MST Replicates (IF2; IF2 1.25 µM): 952.23 a.u. and 948.54 a.u. and 940.12 a.u.
MST Average (IF2; IF2 2.50 µM): 951.73 a.u.
MST Replicates (IF2; IF2 2.50 µM): 945.20 a.u. and 956.43 a.u. and 953.55 a.u.
MST Average (IF2; IF2 5.00 µM): 958.05 a.u.
MST Replicates (IF2; IF2 5.00 µM): 952.00 a.u. and 959.98 a.u. and 962.17 a.u.
MST Average (IF2; IF2 10.00 µM): 963.39 a.u.
MST Replicates (IF2; IF2 10.00 µM): 958.44 a.u. and 964.79 a.u. and 966.94 a.u.
MST Average (IF2; IF2 20.00 µM): 974.27 a.u.
MST Replicates (IF2; IF2 20.00 µM): 972.33 a.u. and 976.56 a.u. and 973.92 a.u.
MST Average (IF2; IF2 40.00 µM): 980.83 a.u.
MST Replicates (IF2; IF2 40.00 µM): 982.65 a.u. and 981.22 a.u. and 978.62 a.u.
MST Replicates (a.u.) ([1]; IF2 0.16 µM, in the presence of the nucleotide): 941.10 a.u. and 944.88 a.u. and 948.29 a.u.
MST Average ([1]; IF2 0.31 µM): 944.83 a.u.
MST Replicates (a.u.) ([1]; IF2 0.31 µM): 937.79 a.u. and 942.65 a.u. and 947.01 a.u.
MST Average ([1]; IF2 0.63 µM): 941.79 a.u.
MST Replicates (a.u.) ([1]; IF2 0.63 µM): 935.48 a.u. and 940.20 a.u. and 943.38 a.u.
MST Average ([1]; IF2 1.25 µM): 942.39 a.u.
MST Replicates (a.u.) ([1]; IF2 1.25 µM): 936.09 a.u. and 941.10 a.u. and 943.68 a.u.
MST Average ([1]; IF2 2.50 µM): 949.26 a.u.
MST Replicates (a.u.) ([1]; IF2 2.50 µM): 943.13 a.u. and 948.21 a.u. and 950.30 a.u.
MST Average ([1]; IF2 5.00 µM): 968.50 a.u.
MST Replicates (a.u.) ([1]; IF2 5.00 µM): 965.17 a.u. and 967.18 a.u. and 969.82 a.u.

Nc1nc2c(ncn2[C@@H]2O[C@H](COP(=O)(O)OP(=O)(O)OP(=O)(O)O)[C@@H](O)[C@H]2O)c(=O)[nH]1 [GTP, guanosine triphosphate]
kapp of Bpy-tRNAi accommodation (70S IC formation) (70S IC; 30S ICs formed with 0.2 mM nucleotide, mixed with 50S subunits): 2.4 ± 0.2 s^–1
A0, best-fit value (70S IC; mInfA): 0.90
A1, best-fit value (70S IC; mInfA): 0.11
K1, best-fit value (70S IC; mInfA): 1.58
k2, best-fit value (70S IC; mInfA): -0.00193
A0, best-fit value (70S IC; mMF1): 0.90
A1, best-fit value (70S IC; mMF1): 0.10
K1, best-fit value (70S IC; mMF1): 1.49
k2, best-fit value (70S IC; mMF1): -1.6e-5
Fluorescence Amplitude Avg (70S IC; mRNA mInfA): 0.108
kfast (s-1) Avg (70S IC; mRNA mInfA): 1.58 s⁻¹
Fluorescence Amplitude Avg (70S IC; mRNA mMF1): 0.103
kfast (s-1) Avg (70S IC; mRNA mMF1): 1.49 s⁻¹
Fluorescence Amplitude Avg (70S IC; mRNA mTufA): 0.145
kfast (s-1) Avg (70S IC; mRNA mTufA): 2.69 s⁻¹
A0, best-fit value (70S IC; mTufA): 0.86
A1, best-fit value (70S IC; mTufA): 0.15
K1, best-fit value (70S IC; mTufA): 2.69
k2, best-fit value (70S IC; mTufA): -0.00034
MST Average (IF2; IF2 0.08 µM): 945.53 a.u.
MST Replicates (IF2; IF2 0.08 µM): 952.20 a.u. and 948.28 a.u. and 936.11 a.u.
MST Average (IF2; IF2 0.16 µM): 947.39 a.u.
MST Replicates (IF2; IF2 0.16 µM): 938.55 a.u. and 949.51 a.u. and 954.10 a.u.
MST Average (IF2; IF2 0.31 µM): 948.97 a.u.
MST Replicates (IF2; IF2 0.31 µM): 951.38 a.u. and 955.20 a.u. and 940.31 a.u.
MST Average (IF2; IF2 0.63 µM): 950.03 a.u.
MST Replicates (IF2; IF2 0.63 µM): 955.50 a.u. and 952.44 a.u. and 942.15 a.u.
MST Average (IF2; IF2 2.50 µM): 955.81 a.u.
MST Replicates (IF2; IF2 2.50 µM): 960.19 a.u. and 957.37 a.u. and 949.88 a.u.
MST Average (IF2; IF2 5.00 µM): 963.92 a.u.
MST Replicates (IF2; IF2 5.00 µM): 963.66 a.u. and 965.85 a.u. and 962.23 a.u.
MST Average (IF2; IF2 10.00 µM): 973.12 a.u.
MST Replicates (IF2; IF2 10.00 µM): 974.68 a.u. and 972.27 a.u. and 972.40 a.u.
MST Average (IF2; IF2 20.00 µM): 982.93 a.u.
MST Replicates (IF2; IF2 20.00 µM): 983.50 a.u. and 982.36 a.u.
MST Average (IF2; IF2 40.00 µM): 989.70 a.u.
MST Replicates (IF2; IF2 40.00 µM): 993.21 a.u. and 991.95 a.u. and 983.94 a.u.
MST Average ([1]; IF2 0.16 µM): 1029.29 a.u.
MST Average ([1]; IF2 0.31 µM): 1076.43 a.u.
MST Average ([1]; IF2 0.63 µM): 1093.32 a.u.
MST Average ([1]; IF2 1.25 µM): 1094.97 a.u.
MST Average ([1]; IF2 2.50 µM): 1077.58 a.u.
MST Average ([1]; IF2 5.00 µM): 1077.76 a.u.
